Patent US20240010635A1, “NOVEL INDIRUBIN DERIVATIVES HAVING HETEROBICYCLIC MOIETIES AND THE USE THEREOF” (priority 2022, published 2024)
Changes are numbered by the printed parent chain.

Assays:
Format in all cases: biochemical
RET M918T = target: T1, RET M918T (Homo sapiens, UniProt P07949, M918T); test: ADP-Glo kinase assay, RET M918T; conditions: recombinant RET (M918T), 120 min room temperature, read-out: Enzyme activity (IC50, nM) RET M918T
T1 construct: Recombinant proteins containing RET wt, RET (M918T) and RET (V804L) domains were purchased from Promega; purchased Promega VA7274
T1 sequence (P07949 724-1016 M918T limits assumed): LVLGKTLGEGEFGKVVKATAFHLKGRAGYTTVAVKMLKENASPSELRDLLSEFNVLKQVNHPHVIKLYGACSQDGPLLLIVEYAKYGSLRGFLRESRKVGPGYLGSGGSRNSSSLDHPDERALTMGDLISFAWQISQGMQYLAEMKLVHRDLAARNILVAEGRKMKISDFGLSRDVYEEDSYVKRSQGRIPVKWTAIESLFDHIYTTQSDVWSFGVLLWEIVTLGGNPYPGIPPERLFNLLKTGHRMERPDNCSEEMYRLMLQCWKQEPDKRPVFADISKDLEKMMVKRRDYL
Experimental: (§1) Analysis performed in two steps. First, after kinase reaction, ADP-Glo™ reagent of equal volume was added to finish kinase reaction, and then the rest ATP was exhausted. Second, Kinase Detection Reagent was added to convert ADP to ATP and newly synthesized ATP was measured by luciferase/luciferin reaction at the same time. Generated light was measured by using luminometer. The measured luminescence amount can be applied to the ATP→ADP standard conversion curve to confirm the correlation with the ADP concentration.
(§2) Recombinant proteins containing RET wt, RET (M918T) and RET (V804L) domains were purchased from Promega (cat #V8061, cat #VA7274, cat #V4473), respectively. According to the manufacturer's instructions, optimal enzyme, ATP, and substrate concentration were established using ADP-Glo™ Kinase Assay (Promega, USA). […] Then, ADP-Glo™ Reagent (5 μl) was added and reacted at room temperature for further 40 min. Lastly, Kinase Detection Reagent (10 μl) was added and reacted for 30 min more at room temperature, and then phosphorylation of substrate peptide was measured by measuring luciferase signal (Integration time 0.5-1 second) using SpectraMax ID5 reader (Molecular Devices LLC., San Jose, CA, USA). IC50 was calculated by nonlinear regression using Prism version 5.01 (GrapghPad).

FLT3 D835Y = target: T2, FLT3 D835Y (Homo sapiens, UniProt P36888, D835Y); test: ADP-Glo kinase assay, FLT3 D835Y; conditions: recombinant FLT3 (D835Y), 120 min room temperature, read-out: Enzyme activity (IC50, nM) FLT3 D835Y
T2 construct: Recombinant proteins containing the FLT3 and FLT3 (D835Y) domains were purchased from Promega; purchased Promega V4514
T2 sequence (P36888 610-943 D835Y limits assumed): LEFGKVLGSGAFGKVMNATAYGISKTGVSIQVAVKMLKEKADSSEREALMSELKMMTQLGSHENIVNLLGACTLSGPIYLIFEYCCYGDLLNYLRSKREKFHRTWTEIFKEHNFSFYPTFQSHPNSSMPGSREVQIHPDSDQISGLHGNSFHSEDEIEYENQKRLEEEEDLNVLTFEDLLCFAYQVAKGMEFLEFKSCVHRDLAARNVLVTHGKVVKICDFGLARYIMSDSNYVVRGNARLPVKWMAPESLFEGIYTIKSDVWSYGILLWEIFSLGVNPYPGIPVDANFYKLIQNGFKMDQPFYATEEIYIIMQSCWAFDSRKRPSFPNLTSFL
Experimental: FLT3 activity inhibition was measured by ADP-Glo kinase assay (Promega, cat #V9101). ADP-Glo kinase analysis method is an emission ADP detect method which measures kinase activity by quantification of ADP amount produced during kinase reaction and provides uniform high-throughput screening method.
as §1
Recombinant proteins containing the FLT3 and FLT3 (D835Y) domains were purchased from Promega (cat #V4064, cat #V4514), respectively. According to the manufacturer's instructions, optimal enzyme, ATP, and substrate concentration were established using the ADP-Glo™ Kinase Assay (Promega, USA). Kinase reaction buffer 5× (200 mM Tris-HCl, pH 7.5, 100 mM MgCl2, 0.5 mg/ml BSA) was diluted and used, and the diluted compound of the present invention (5×, 1 μl), FLT3 enzyme or FLT3/D835Y enzyme (2.5×, 2 μl) and substrate/ATP mixture (2.5×, 2 μl), were mixed sequentially and reacted at room temperature for 120 minutes. Then, ADP-Glo™ Reagent (5 μl) was added and reacted for 40 min at room temperature. Finally, after adding a reagent for detection (Kinase Detection Reagent, 10 μl), reacting at room temperature for 30 min, and then phosphorylation of substrate peptide was measured by measuring luciferase signal (Integration time 0.5-1 second) using SpectraMax ID5 reader (Molecular Devices LLC., San Jose, CA, USA). IC50 was calculated by nonlinear regression using Prism version 5.01 (GrapghPad).

RET V804L = target: T3, RET V804L (Homo sapiens, UniProt P07949, V804L); test: ADP-Glo kinase assay, RET V804L; conditions: recombinant RET (V804L), 120 min room temperature, read-out: Enzyme activity (IC50, nM) RET V804L
T3 construct: Recombinant proteins containing RET wt, RET (M918T) and RET (V804L) domains were purchased from Promega; purchased Promega V4473
T3 sequence (P07949 724-1016 V804L limits assumed): T1 sequence (P07949 724-1016 M918T limits assumed) with V81L, T195M
Experimental: as §1, §2

RET WT = target: T4, RET WT (Homo sapiens, UniProt P07949); test: ADP-Glo kinase assay, RET WT; conditions: recombinant RET wt, 120 min room temperature, read-out: Enzyme activity (IC50, nM) RET WT
T4 construct: Recombinant proteins containing RET wt, RET (M918T) and RET (V804L) domains were purchased from Promega; purchased Promega V8061
T4 sequence (P07949 724-1016 limits assumed): T1 sequence (P07949 724-1016 M918T limits assumed) with T195M
Experimental: as §1, §2

SMILES | IC50 (RET M918T) [nM] | IC50 (FLT3 D835Y) [nM] | IC50 (RET V804L) [nM] | IC50 (RET WT) [nM]
O=C1Nc2ccc(F)cc2/C1=C1/Nc2ccccc2/C1=N\OCC(=O)N1CC2(CNC2)C1 [Example 18, (2Z,3E)-5′-fluoro-3-((2-oxo-2-(2,6-diazaspiro[3.3]heptan-2-yl)ethoxy)imino)-[2,3′-biindolinylidene]-2′-one] | 0.921 | 0.306 | 0.657 | 1.12
O=C(CO/N=C1/C(=C2/C(=O)Nc3ccc(F)cc32)Nc2ccccc21)N[C@H]1[C@@H]2CNC[C@@H]21 [Example 19, N-((1R,5S,6s)-3-azabicyclo[3.1.0]hexan-6-yl)-2-(((E)-((Z)-5′-fluoro-2′-oxo-[2,3′-biindolinylidene]-3-ylidene)amino)oxy)acetamide] | 1.39 | 0.511 | 0.419 | 1.05
O=C1Nc2ccc(F)cc2/C1=C1/Nc2ccccc2/C1=N\OCC(=O)N1C[C@H]2C[C@@H]1CN2 [Example 20, (2Z,3E)-3-((2-((1R,4R)-2,5-diazabicyclo[2.2.1]heptan-2-yl)-2-oxoethoxy)imino)-5′-fluoro-[2,3′-biindolinylidene]-2′-one] | 1.19 | 0.271 | 1.04 | 1.88
